The assay deals with NF-κB. The experiment in a line: NF-κB luciferase reporter assay in A549/NF-κBLuc cells stimulated with IL-1β. Particulars: Homo sapiens, A549, A549/NF-κBLuc cells; compound added 1 hour before IL-1β, then 3 hours incubation; luciferase activity; read-out: NF-κB Inhibitory Activity (IC50). In kind it is cell-based, human. How it is done:
Effect on Human Lung Cancer-Derived Cell A549 (A549/NF-κBluc) Containing Stably Introduced Luciferase Plasmid (pNFκB-Luc, Stratagene. U.S.A.) Regulated by NF-κB Binding Sequence
Using Lipofectamine (Lifetech Oriental, Tokyo), pNFκB-Luc and pSV2neo (Clontech, U.S.A.) were co-transfected into the A549 cell (ATCC CCL185) and G418 sulfate (1 mg/ml, Lifetech Oriental) was added to the culture medium to select cells containing stably introduced pNFκB-Luc A549/NF-κBLuc.
The compound obtained in Examples each was added to A549/NF-κBLuc and one hour after that, IL-1β capable of activating NF-κB was added. The incubation was further continued for 3 hours.
NF-κB Inhibitory Activity (IC50) of Substituted Benzoic Acid Derivitives: […]
Background: In a reporter assay the amount or activity of a reporter protein is the signal.

In the case of `COC1=C(OC)C(=O)C(Cc2ccc(OC(C)=O)c(C(=O)Nc3cc(OC)c(OC)c(OC)c3)c2)=C(C)C1=O` [Example 106, N-[5-(5,6-Dimethoxy-3-methyl-1,4-benzoquinon-2-yl)methyl-2-acetoxybenzoyl]-3,4,5-trimethoxyaniline], the IC50 stood at 70 µM.
As for `COC1=C(OC)C(=O)C(Cc2ccc(OC(C)C)c(C(=O)Nc3ccc(OC)cc3)c2)=C(C)C1=O` [Example 85, N-[5-(5,6-Dimethoxy-3-methyl-1,4-benzoquinon-2-yl)methyl-2-isopropoxybenzoyl]-4-methoxyaniline], the concentration for half-maximal inhibition (IC50) was found to be 65 µM.
Next, `COC1=C(OC)C(=O)C(Cc2ccc(OC(C)=O)c(C(=O)Nc3ccc(OC)cc3)c2)=C(C)C1=O` [Example 70, N-[5-(5,6-Dimethoxy-3-methyl-1,4-benzoquinon-2-yl)methyl-2-acetoxybenzoyl]-4-methoxyaniline]: 15 µM.
Next, `COC1=C(OC)C(=O)C(Cc2cccc(C(=O)N3CCCCC3)c2OC(C)=O)=C(C)C1=O` [Example 71, N-[3-(5,6-Dimethoxy-3-methyl-1,4-benzoquinon-2-yl)methyl-2-acetoxybenzoyl]piperidine]: 36 µM; `COC1=C(OC)C(=O)C(Cc2ccc(OC)c(C(=O)N3CCCCC3)c2)=C(C)C1=O` [Example 80, N-[5-(5,6-Dimethoxy-3-methyl-1,4-benzoquinon-2-yl)methyl-2-methoxybenzoyl]piperidine]: 82 µM; `COC1=C(OC)C(=O)C(Cc2ccc(O)c(C(=O)Nc3ccc(N4CCOCC4)cc3)c2)=C(C)C1=O` [Example 118, N-[5-(5,6-Dimethoxy-3-methyl-1,4-benzoquinon-2-yl)methyl-2-hydroxybenzoyl]-4-morpholinoaniline]: 8.3 µM.
`COC1=C(OC)C(=O)C(Cc2cccc(C(=O)N3CCCCC3)c2O)=C(C)C1=O` [Example 77, N-[3-(5,6-Dimethoxy-3-methyl-1,4-benzoquinon-2-yl)methyl-2-hydroxybenzoyl]piperidine]: the IC50 is 35 µM.
Next, `COC1=C(OC)C(=O)C(Cc2ccc(O)c(C(=O)Nc3ccc(OC)cc3)c2)=C(C)C1=O` [Example 76, N-[5-(5,6-Dimethoxy-3-methyl-1,4-benzoquinon-2-yl)methyl-2-hydroxybenzoyl]-4-methoxyaniline]: 7 µM; `COC1=C(OC)C(=O)C(Cc2ccc(Oc3ccccc3)c(C(=O)N3CCOCC3)c2)=C(C)C1=O` [Example 87, N-[5-(5,6-Dimethoxy-3-methyl-1,4-benzoquinon-2-yl)methyl-2-phenoxybenzoyl]morpholine]: 19 µM; `COC1=C(OC)C(=O)C(Cc2ccc(OC(C)=O)c(C(=O)Nc3ccc(N4CCOCC4)cc3)c2)=C(C)C1=O` [Example 110, N-[5-(5,6-Dimethoxy-3-methyl-1,4-benzoquinon-2-yl)methyl-2-acetoxybenzoyl]-4-morpholinoaniline]: 34 µM.
Next, `COC1=C(OC)C(=O)C(Cc2ccc(OCc3cccnc3)c(C(=O)N3CCC(C)CC3)c2)=C(C)C1=O` [Example 127, N-[5-(5,6-Dimethoxy-3-methyl-1,4-benzoquinon-2-yl)methyl-2-(3-pyridylmethyloxy)benzoyl]-4-methylpiperidine]: 24 µM.
As for `COC1=C(OC)C(=O)C(Cc2ccc(O)c(C(=O)Nc3ccc(Cl)cc3)c2)=C(C)C1=O` [Example 117], the figure is 20 µM; as for `COC1=C(OC)C(=O)C(Cc2ccc(OCc3ccncc3)c(C(=O)N3CCCCC3)c2)=C(C)C1=O` [Example 95, N-[5-(5,6-Dimethoxy-3-methyl-1,4-benzoquinon-2-yl)methyl-2-(4-pyridylmethyloxy)benzoyl]piperidine], 35 µM; as for `COC1=C(OC)C(=O)C(Cc2ccc(OCc3cccnc3)c(C(=O)N3CCCCC3)c2)=C(C)C1=O` [Example 92, N-[5-(5,6-Dimethoxy-3-methyl-1,4-benzoquinon-2-yl)methyl-2-(3-pyridylmethyloxy)benzoyl]piperidine], 49 µM.
Take `COC1=C(OC)C(=O)C(Cc2ccc(Oc3cccc(OC)c3)c(C(=O)N3CCCCC3)c2)=C(C)C1=O` [Example 89, N-[5-(5,6-Dimethoxy-3-methyl-1,4-benzoquinon-2-yl)methyl-2-(3-methoxyphenoxy)benzoyl]piperidine]: the IC50 worked out at 45 µM.
Next, `COC1=C(OC)C(=O)C(Cc2ccc(Oc3ccccc3)c(C(=O)N3CCCCC3C)c2)=C(C)C1=O` (stereo not drawn) [Example 125, N-[5-(5,6-Dimethoxy-3-methyl-1,4-benzoquinon-2-yl)methyl-2-phenoxybenzoyl]-2-methylpiperidine]: 19 µM; `COC1=C(OC)C(=O)C(Cc2cccc(C(=O)N3CCOCC3)c2OCc2ccccc2)=C(C)C1=O` [Example 65, N-[3-(5,6-Dimethoxy-3-methyl-1,4-benzoquinon-2-yl)methyl-2-benzyloxybenzoyl]morpholine]: 37 µM; `COC1=C(OC)C(=O)C(Cc2cccc(C(=O)Nc3cccnc3)c2OC(C)=O)=C(C)C1=O` [Example 206, N-(Pyridin-3-yl)-3-(5,6-dimethoxy-3-methyl-1,4-benzoquinon-2-yl)methyl-2-acetoxybenzamide]: 87 µg/mL.
As for `COC1=C(OC)C(=O)C(Cc2ccc(Oc3ccccc3)c(C(=O)N3CCCCC3)c2)=C(C)C1=O` [Example 86, N-[5-(5,6-Dimethoxy-3-methyl-1,4-benzoquinon-2-yl)methyl-2-phenoxybenzoyl]piperidine], the figure is 27 µM.
As for `COC1=C(OC)C(=O)C(Cc2cccc(C(=O)N3CCCCC3)c2OCc2ccccc2)=C(C)C1=O` [Example 64, N-[3-(5,6-Dimethoxy-3-methyl-1,4-benzoquinon-2-yl)methyl-2-benzyloxybenzoyl]piperidine], the figure is 33 µM; as for `COC1=C(OC)C(=O)C(Cc2cccc(C(=O)N3CCOCC3)c2O)=C(C)C1=O` [Example 78, N-[3-(5,6-Dimethoxy-3-methyl-1,4-benzoquinon-2-yl)methyl-2-hydroxybenzoyl]morpholine], 57 µM; as for `COC1=C(OC)C(=O)C(Cc2ccc(O)c(C(=O)Nc3ccc(C#N)cc3)c2)=C(C)C1=O` [Example 119, N-[5-(5,6-Dimethoxy-3-methyl-1,4-benzoquinon-2-yl)methyl-2-hydroxybenzoyl]-4-cyanoaniline], 13 µM.
As for `COC(=O)c1cc(CC2=C(C)C(=O)C(OC)=C(OC)C2=O)ccc1OCC(=O)OC(C)(C)C` [Example 130, Methyl 5-(5,6-Dimethoxy-3-methyl-1,4-benzoquinon-2-yl)methyl-2-(tert-butoxycarbonylmethyloxy)benzoate], the IC50 amounted to 59 µM.
As for `COC1=C(OC)C(=O)C(Cc2ccc(OCC(=O)OC(C)(C)C)c(C(=O)N3CCCCC3)c2)=C(C)C1=O` [Example 104, N-[5-(5,6-Dimethoxy-3-methyl-1,4-benzoquinon-2-yl)methyl-2-(tert-butoxycarbonylmethyloxy)benzoyl]piperidine], the figure is 29 µM.
Next, `COC1=C(OC)C(=O)C(Cc2ccc(C(=O)N3CCCCC3)c(OCc3ccccc3)c2)=C(C)C1=O` [Example 57, N-[4-(5,6-Dimethoxy-3-methyl-1,4-benzoquinon-2-yl)methyl-2-benzyloxybenzoyl]piperidine]: 29 µM.
As to `COC1=C(OC)C(=O)C(Cc2ccc(O)c(C(=O)Nc3ccc(C(C)=O)cc3)c2)=C(C)C1=O` [Example 116, N-[5-(5,6-Dimethoxy-3-methyl-1,4-benzoquinon-2-yl)methyl-2-hydroxybenzoyl]-4-acetylaniline], the IC50 turned out to be 17 µM.
As for `COC1=C(OC)C(=O)C(Cc2ccc(OCc3cccnc3)c(C(=O)Nc3ccc(OC)cc3)c2)=C(C)C1=O` [Example 94, N-[5-(5,6-Dimethoxy-3-methyl-1,4-benzoquinon-2-yl)methyl-2-(3-pyridylmethyloxy)benzoyl]-4-methoxyaniline], the figure is 45 µM; as for `COC1=C(OC)C(=O)C(Cc2ccc(OC(C)=O)c(C(=O)Nc3ccc(N4CCOCC4)nc3)c2)=C(C)C1=O` [Example 224, N-(6-Morpholinopyridin-3-yl)-5-(5,6-dimethoxy-3-methyl-1,4-benzoquinon-2-yl)methyl-2-acetoxybenzamide], 24 µg/mL.
Next, `COC1=C(OC)C(=O)C(Cc2ccc(Oc3ccccc3)c(C(=O)N3CCCc4ccccc43)c2)=C(C)C1=O` [Example 124, N-[5-(5,6-Dimethoxy-3-methyl-1,4-benzoquinon-2-yl)methyl-2-phenoxybenzoyl]-1,2,3,4-tetrahydroquinoline]: 46 µM; `COC1=C(OC)C(=O)C(Cc2ccc(OC(C)=O)c(C(=O)Nc3ccnc(Cl)c3)c2)=C(C)C1=O` [Example 226, N-(2-Chloropyridin-4-yl)-5-(5,6-dimethoxy-3-methyl-1,4-benzoquinon-2-yl)methyl-2-acetoxybenzamide]: 19 µg/mL.
As for `COC1=C(OC)C(=O)C(Cc2ccc(O)c(C(=O)Nc3ccc(C(F)(F)F)cc3)c2)=C(C)C1=O` [Example 120, N-[5-(5,6-Dimethoxy-3-methyl-1,4-benzoquinon-2-yl)methyl-2-hydroxybenzoyl]-4-trifluoromethylaniline], the figure is 1.7 µM; as for `COC1=C(OC)C(=O)C(Cc2ccc(OC(C)=O)c(C(=O)N(C)c3ccc(OC)cc3)c2)=C(C)C1=O` [Example 163, N-Methyl-[5-(5,6-dimethoxy-3-methyl-1,4-benzoquinon-2-yl)methyl-2-acetoxybenzoyl]-4-methoxyaniline], 30 µg/mL.
With `COC1=C(OC)C(=O)C(Cc2ccc(OC(C)C)c(C(=O)N3CCOCC3)c2)=C(C)C1=O` [Example 84, N-[5-(5,6-Dimethoxy-3-methyl-1,4-benzoquinon-2-yl)methyl-2-isopropoxybenzoyl]morpholine], the concentration for half-maximal inhibition (IC50) worked out at 63 µM.

As usually defined, the IC50 is the concentration at which inhibition is half-maximal.

The values are drawn from patent publication US7064124B2, “NF-κB inhibitor containing substituted benzoic acid derivative as active ingredient” (Daiichi Suntory Pharma Co., Ltd., priority 2001, dated 2006).
